Measured values taken from PMC6100082, “Pyridine-Ureas as Potential Anticancer Agents: Synthesis and In Vitro Biological Evaluation” (Molecules : A Journal of Synthetic Chemistry and Natural …, 2018).

Legend:
Type in all cases: cell-based, human
MCF7 = experiment: NCI one-dose SRB assay (Breast Cancer)
Procedure: (§1) The structures of all the newly prepared pyridine-ureas 8a–n were submitted to the National Cancer Institute (NCI) Developmental Therapeutic Program. Eight compounds 8b, 8d, 8e, 8i, 8j and 8l–n were selected to be examined for their in vitro growth inhibitory activity. The anticancer assays were carried out according to the protocol of the Drug Evaluation Branch, NCI, Bethesda. The selected pyridine-ureas were tested at one dose primary anticancer assay against a panel of approximately 58 cancer lines (concentration 10^−5 M). The tested human cancer cell lines emerged from nine different cancer subtypes: leukemia, colon, melanoma, ovarian, lung, CNS, renal, breast and prostate cancers. The sulforhodamine B (SRB) protein assay was adopted to estimate the cell viability and growth. The results were reported as mean-graph of the percentage growth of the treated cells, and presented as percentage growth inhibition (GI%) caused by the test compounds (Table 2).
(§2) The anticancer assays were performed in accordance with the protocol of the Drug Evaluation Branch, NCI, Bethesda. A 48 h drug exposure protocol was used and sulforhodamine B (SRB) protein assay was applied to estimate the cell viability and growth, as reported earlier.

T-47D = experiment: NCI one-dose SRB assay (Breast Cancer)
Procedure: as §1, §2

MDA-MB-468 = experiment: NCI one-dose SRB assay (Breast Cancer)
Procedure: as §1, §2

BT-549 = experiment: NCI one-dose SRB assay (Breast Cancer)
Procedure: as §1, §2

MDA-MB-231 = experiment: NCI one-dose SRB assay (Breast Cancer)
Procedure: as §1, §2

HS 578T = experiment: NCI one-dose SRB assay (Breast Cancer)
Procedure: as §1, §2

SF-268 = experiment: NCI one-dose SRB assay (CNS Cancer)
Procedure: as §1, §2

U251 = experiment: NCI one-dose SRB assay (CNS Cancer)
Procedure: as §1, §2

SF-539 = experiment: NCI one-dose SRB assay (CNS Cancer)
Procedure: as §1, §2

SF-295 = experiment: NCI one-dose SRB assay (CNS Cancer)
Procedure: as §1, §2

SNB-75 = experiment: NCI one-dose SRB assay (CNS Cancer)
Procedure: as §1, §2

SNB-19 = experiment: NCI one-dose SRB assay (CNS Cancer)
Procedure: as §1, §2

SK-OV-3 = experiment: NCI one-dose SRB assay (Ovarian Cancer)
Procedure: as §1, §2

OVCAR-4 = experiment: NCI one-dose SRB assay (Ovarian Cancer)
Procedure: as §1, §2

NCI/ADR-RES = experiment: NCI one-dose SRB assay (Ovarian Cancer)
Procedure: as §1, §2

OVCAR-8 = experiment: NCI one-dose SRB assay (Ovarian Cancer)
Procedure: as §1, §2

OVCAR-3 = experiment: NCI one-dose SRB assay (Ovarian Cancer)
Procedure: as §1, §2

OVCAR-5 = experiment: NCI one-dose SRB assay (Ovarian Cancer)
Procedure: as §1, §2

IGROV1 = experiment: NCI one-dose SRB assay (Ovarian Cancer)
Procedure: as §1, §2

LOX IMVI = experiment: NCI one-dose SRB assay (Melanoma)
Procedure: as §1, §2

SK-MEL-5 = experiment: NCI one-dose SRB assay (Melanoma)
Procedure: as §1, §2

UACC-62 = experiment: NCI one-dose SRB assay (Melanoma)
Procedure: as §1, §2

MDA-MB-435 = experiment: NCI one-dose SRB assay (Melanoma)
Procedure: as §1, §2

SK-MEL-2 = experiment: NCI one-dose SRB assay (Melanoma)
Procedure: as §1, §2

MALME-3M = experiment: NCI one-dose SRB assay (Melanoma)
Procedure: as §1, §2

M14 = experiment: NCI one-dose SRB assay (Melanoma)
Procedure: as §1, §2

[1] = Homo sapiens, 10 μM, read-out: Percentage growth inhibition (GI%)

Structure (SMILES): COc1ccc(NC(=O)Nc2ccc(-c3ccc(OC)c(OC)c3)nc2C)cc1 [Compound 8n, 1-(6-(3,4-Dimethoxyphenyl)-2-methylpyridin-3-yl)-3-(4-methoxyphenyl) Urea]
- inhibition at 10 µM (MCF7; Homo sapiens, MCF7, 10 μM, read-out: Percentage growth inhibition (GI%)): 35%
- Growth Percent (MCF7; MCF7, 1.00E-5 Molar): 65.14%
- Growth Percent (T-47D; 1.00E-5 Molar): 60.36%
- inhibition at 10 µM (T-47D; Homo sapiens, T47D, 10 μM, read-out: Percentage growth inhibition (GI%)): 40%
- inhibition at 10 µM (MDA-MB-468; Homo sapiens, MDA-MB-468, 10 μM, read-out: Percentage growth inhibition (GI%)): 17%
- Growth Percent (MDA-MB-468; MDA-MB-468, 1.00E-5 Molar): 83.00%
- Growth Percent (BT-549; BT-549, 1.00E-5 Molar): 50.44%
- inhibition at 10 µM (BT-549; Homo sapiens, BT-549, 10 μM, read-out: Percentage growth inhibition (GI%)): 50%
- inhibition at 10 µM (MDA-MB-231; Homo sapiens, MDA-MB-231, 10 μM, read-out: Percentage growth inhibition (GI%)): 60%
- Growth Percent (MDA-MB-231; MDA-MB-231/ATCC, 1.00E-5 Molar): 40.48%
- Growth Percent (HS 578T; 1.00E-5 Molar): 39.96%
- inhibition at 10 µM (HS 578T; [1]): 61%
- inhibition at 10 µM (SF-268; Homo sapiens, SF-268, 10 μM, read-out: Percentage growth inhibition (GI%)): 41%
- Growth Percent (SF-268; SF-268, 1.00E-5 Molar): 59.25%
- inhibition at 10 µM (U251; Homo sapiens, U-251, U251, 10 μM, read-out: Percentage growth inhibition (GI%)): 78%
- Growth Percent (U251; U251, 1.00E-5 Molar): 22.08%
- inhibition at 10 µM (SF-539; Homo sapiens, SF-539, 10 μM, read-out: Percentage growth inhibition (GI%)): 30%
- Growth Percent (SF-539; SF-539, 1.00E-5 Molar): 70.63%
- inhibition at 10 µM (SF-295; Homo sapiens, SF-295, 10 μM, read-out: Percentage growth inhibition (GI%)): < 10%
- Growth Percent (SF-295; SF-295, 1.00E-5 Molar): 101.75%
- inhibition at 10 µM (SNB-75; Homo sapiens, SNB-75, 10 μM, read-out: Percentage growth inhibition (GI%)): 53%
- Growth Percent (SNB-75; SNB-75, 1.00E-5 Molar): 47.52%
- inhibition at 10 µM (SNB-19; Homo sapiens, SNB-19, 10 μM, read-out: Percentage growth inhibition (GI%)): 29%
- Growth Percent (SNB-19; SNB-19, 1.00E-5 Molar): 71.47%
- inhibition at 10 µM (SK-OV-3; Homo sapiens, SK-OV-3, 10 μM, read-out: Percentage growth inhibition (GI%)): 26%
- Growth Percent (SK-OV-3; SK-OV-3, 1.00E-5 Molar): 74.76%
- inhibition at 10 µM (OVCAR-4; Homo sapiens, OVCAR-4, 10 μM, read-out: Percentage growth inhibition (GI%)): 71%
- Growth Percent (OVCAR-4; OVCAR-4, 1.00E-5 Molar): 29.55%
- Growth Percent (NCI/ADR-RES; 1.00E-5 Molar): 84.96%
- inhibition at 10 µM (NCI/ADR-RES; [1]): 16%
- inhibition at 10 µM (OVCAR-8; Homo sapiens, OVCAR-8, 10 μM, read-out: Percentage growth inhibition (GI%)): 53%
- Growth Percent (OVCAR-8; OVCAR-8, 1.00E-5 Molar): 47.38%
- inhibition at 10 µM (OVCAR-3; Homo sapiens, OVCAR-3, 10 μM, read-out: Percentage growth inhibition (GI%)): < 10%
- Growth Percent (OVCAR-3; OVCAR-3, 1.00E-5 Molar): 102.08%
- inhibition at 10 µM (OVCAR-5; Homo sapiens, OVCAR-5, 10 μM, read-out: Percentage growth inhibition (GI%)): < 10%
- Growth Percent (OVCAR-5; OVCAR-5, 1.00E-5 Molar): 98.04%
- inhibition at 10 µM (IGROV1; Homo sapiens, IGROV-1, IGROV1, 10 μM, read-out: Percentage growth inhibition (GI%)): 23%
- Growth Percent (IGROV1; IGROV1, 1.00E-5 Molar): 77.14%
- Growth Percent (LOX IMVI; 1.00E-5 Molar): 88.83%
- inhibition at 10 µM (LOX IMVI; [1]): 12%
- inhibition at 10 µM (SK-MEL-5; Homo sapiens, SK-MEL-5, 10 μM, read-out: Percentage growth inhibition (GI%)): 78%
- Growth Percent (SK-MEL-5; SK-MEL-5, 1.00E-5 Molar): 22.98%
- inhibition at 10 µM (UACC-62; Homo sapiens, UACC-62, 10 μM, read-out: Percentage growth inhibition (GI%)): 41%
- Growth Percent (UACC-62; UACC-62, 1.00E-5 Molar): 59.87%
- inhibition at 10 µM (MDA-MB-435; Homo sapiens, MDA-MB-435, 10 μM, read-out: Percentage growth inhibition (GI%)): 35%
- Growth Percent (MDA-MB-435; MDA-MB-435, 1.00E-5 Molar): 65.17%
- inhibition at 10 µM (SK-MEL-2; Homo sapiens, SK-MEL-2, 10 μM, read-out: Percentage growth inhibition (GI%)): 21%
- Growth Percent (SK-MEL-2; SK-MEL-2, 1.00E-5 Molar): 79.55%
- Growth Percent (MALME-3M; 1.00E-5 Molar): 44.12%
- inhibition at 10 µM (MALME-3M; [1]): 56%
- inhibition at 10 µM (M14; Homo sapiens, M14, 10 μM, read-out: Percentage growth inhibition (GI%)): 28%
- Growth Percent (M14; M14, 1.00E-5 Molar): 72.14%
